Values quoted from earlier work in patent US12570633B2, “Preparation method for CDK4/6 inhibitor” (CHIA TAI TIANQING PHARMACEUTICAL GROUP CO., LTD., priority 2020, dated 2026).

Columns and labels:
[1] = system: CDK4/6; conditions: background statement referring to WO2016141881; read-out: IC50 value against CDK4/6
[2] = system: breast cancer; conditions: background statement referring to WO2016141881

Structure (SMILES): CC(C)c1c2cc(-c3nc(Nc4ccc(N5CCNCC5)cn4)ncc3F)ccc2nn1C [compound of formula (I)]
- IC50 [1]: < 1 nM
- tumor inhibitory activity against breast cancer [2]: good tumor inhibitory activity
